{"source": "patent US20140079836A1", "about": "“METHODS AND COMPOSITIONS FOR ALTERING HEALTH, WELLBEING, AND LIFESPAN” (LifeSpan Extension, LLC, priority 2008, published 2014)", "system": "Custom Array II Genes", "test": "Custom Array II gene expression, antioxidant alone or + UVB", "format": "cell-based", "conditions": "Alone"}
{"smiles": "COC1=C(OC)C(=O)C(CCCCCCCCCCO)=C(C)C1=O", "note": "[Idebenone, 6-(10-hydroxydecyl)-2,3-dimethoxy-5-methyl-1,4-benzoquin-one]", "values": [{"measurement": "ACE (NM_000789) Expression", "value": "−1.0"}, {"measurement": "ACTB (NM_001101) Expression", "value": 1.0}, {"measurement": "APOE (NM_000041) Expression", "value": 1.0}, {"measurement": "BAX (NM_004324) Expression", "value": 1.3}, {"measurement": "BCL2 (NM_000633) Expression", "value": 1.2}, {"measurement": "BCL2L1 (NM_138578) Expression", "value": 1.0}, {"measurement": "BMP2 (NM_001200) Expression", "value": 1.1}, {"measurement": "CASP2 (NM_032982) Expression", "value": 1.0}, {"measurement": "CASP9 (NM_001229) Expression", "value": "−1.0"}, {"measurement": "CCL4L1 (NM_001001435) Expression", "value": 1.0}, {"measurement": "CDKN2A (NM_000077) Expression", "value": 1.0}, {"measurement": "CLK1 (NM_004071) Expression", "value": 1.0}, {"measurement": "COL1A1 (NM_000088) Expression", "value": 1.0}, {"measurement": "COL3A1 (NM_000090) Expression", "value": "−1.1"}, {"measurement": "COX1 (NP_536845) Expression", "value": 1.0}, {"measurement": "CREBBP (NM_004380) Expression", "value": 1.0}, {"measurement": "CRP (NM_000567) Expression", "value": "−1.0"}, {"measurement": "CYP19A1 (NM_000103) Expression", "value": 1.4}, {"measurement": "DDC (NM_000790) Expression", "value": 1.0}, {"measurement": "DUSP2 (NM_004418) Expression", "value": 1.0}, {"measurement": "EGF (NM_001963) Expression", "value": 1.0}, {"measurement": "EGR2 (NM_000399) Expression", "value": 1.0}, {"measurement": "FOS (NM_005252) Expression", "value": 1.0}, {"measurement": "FOXO3 (NM_001455) Expression", "value": 1.0}, {"measurement": "GADPH (NM_002046) Expression", "value": 1.3}, {"measurement": "GCH1 (NM_000161) Expression", "value": 1.0}, {"measurement": "GH1 (NM_000515) Expression", "value": 1.0}, {"measurement": "GPX1 (NM_000581) Expression", "value": 1.0}, {"measurement": "HBEGF (NM_001945) Expression", "value": 1.0}, {"measurement": "HGDC (SA_00105) Expression", "value": 1.2}, {"measurement": "HLA-DRA (NM_019111) Expression", "value": 1.0}, {"measurement": "HMOX1 (NM_002133) Expression", "value": "−1.0"}, {"measurement": "HPRT1 (NM_000194) Expression", "value": 1.2}, {"measurement": "HSPA1A (NM_005345) Expression", "value": "−1.0"}, {"measurement": "HSPA1B (NM_005346) Expression", "value": "−1.0"}, {"measurement": "HSPA1L (NM_005527) Expression", "value": 1.0}, {"measurement": "HSPA6 (NM_002155) Expression", "value": "−1.1"}, {"measurement": "IFI44 (NM_006417) Expression", "value": "−1.6"}, {"measurement": "IGF1 (NM_000618) Expression", "value": 1.1}, {"measurement": "IGF2 (NM_000612) Expression", "value": 1.0}, {"measurement": "IL1A (NM_000575) Expression", "value": "−1.0"}, {"measurement": "IL6 (NM_000600) Expression", "value": "−1.0"}, {"measurement": "IL8 (NM_000584) Expression", "value": "−1.2"}, {"measurement": "IL10 (NM_000572) Expression", "value": 1.1}, {"measurement": "IL11 (NM_000641) Expression", "value": "−1.1"}, {"measurement": "IL33 (NM_033439) Expression", "value": "−1.1"}, {"measurement": "IMMP1L (NM_144981) Expression", "value": "−1.0"}, {"measurement": "JUN (NM_002228) Expression", "value": 1.0}, {"measurement": "KIT (NM_000222) Expression", "value": "−1.3"}, {"measurement": "KL (NM_004795) Expression", "value": 1.0}, {"measurement": "KRAS (NM_004985) Expression", "value": "−1.4"}, {"measurement": "MAPK14 (NM_001315) Expression", "value": 1.0}, {"measurement": "MMP1 (NM_002421) Expression", "value": 1.0}, {"measurement": "NADSYN1 (NM_018161) Expression", "value": 1.2}, {"measurement": "NEIL1 (NM_024608) Expression", "value": 1.5}, {"measurement": "NFKB1 (NM_003998) Expression", "value": "−1.5"}, {"measurement": "NOS1 (NM_000620) Expression", "value": 1.9}, {"measurement": "NOS2 (NM_000625) Expression", "value": 1.1}, {"measurement": "NOS3 (NM_000603) Expression", "value": 1.0}, {"measurement": "PARP1 (NM_001618) Expression", "value": 1.3}, {"measurement": "PARP2 (NM_005484) Expression", "value": 1.3}, {"measurement": "PARP3 (NM_005485) Expression", "value": "−1.0"}, {"measurement": "PARP4 (NM_006437) Expression", "value": 1.1}, {"measurement": "PARP9 (NM_031458) Expression", "value": 1.0}, {"measurement": "PDGFRL (NM_006207) Expression", "value": "−1.1"}, {"measurement": "POT1 (NM_015450) Expression", "value": "−1.0"}, {"measurement": "PPARG (NM_015869) Expression", "value": "−1.0"}, {"measurement": "PPARGC1 (NM_013261) Expression", "value": "−1.0"}, {"measurement": "PPC (SA_00103) Expression", "value": 1.0}, {"measurement": "PTGS2 (NM_000963) Expression", "value": "−1.2"}, {"measurement": "RAP1A (NM_002884) Expression", "value": 1.3}, {"measurement": "RTC (SA_00104) Expression", "value": 1.1}, {"measurement": "S100A7 (NM_002963) Expression", "value": 1.1}, {"measurement": "SERPINB (NM_002575) Expression", "value": 1.1}, {"measurement": "SHC1 (NM_003029) Expression", "value": "−1.4"}, {"measurement": "SIRT1 (NM_012238) Expression", "value": "−1.2"}, {"measurement": "SIRT2 (NM_012237) Expression", "value": "−1.0"}, {"measurement": "SIRT3 (NM_012239) Expression", "value": "−1.1"}, {"measurement": "SIRT4 (NM_012240) Expression", "value": 1.1}, {"measurement": "SOD1 (NM_000454) Expression", "value": "−1.0"}, {"measurement": "SOD2 (NM_000636) Expression", "value": "−1.2"}, {"measurement": "TEP1 (NM_007110) Expression", "value": 1.1}, {"measurement": "TERF2 (NM_005652) Expression", "value": 1.0}, {"measurement": "TERT (NM_198255) Expression", "value": 1.1}, {"measurement": "TGFB1 (NM_000660) Expression", "value": "−1.1"}, {"measurement": "TIMM22 (NM_013337) Expression", "value": 1.1}, {"measurement": "TIMP3 (NM_000362) Expression", "value": 1.2}, {"measurement": "TINF2 (NM_012461) Expression", "value": 1.1}, {"measurement": "TNF (NM_000594) Expression", "value": "−1.1"}, {"measurement": "TOMM40 (NM_006114) Expression", "value": 1.0}, {"measurement": "TP53 (NM_000546) Expression", "value": "−1.1"}, {"measurement": "TPP1 (NM_000391) Expression", "value": "−1.1"}, {"measurement": "UBE2S (NM_014501) Expression", "value": 1.2}, {"measurement": "VEGFA (NM_003376) Expression", "value": "−1.7"}]}
